From patent US20230390304A1, “Method and Composition for Treating Epilepsy” (Lipocine Inc., priority 2022, published 2023)

Assay: Solubility of 3α-OH-5β-pregnan-20-one in SBE-β-CD (cyclodextrin) solution
Type: physicochemical
Description: When utilizing sulfobutylether-β-cyclodextrin (SBE-3-CD) oral compositions including solubilized or semi solid 3α-OH-5β-pregnan-20-one, it may be challenging to load proper amounts of 3α-OH-5β-pregnan-20-one so as to deliver effective serum levels of 3α-OH-5β-pregnan-20-one due to limitations with respect to 3α-OH-5β-pregnan-20-one solubility in various cyclodextrin solutions including SBE-β-CD (e.g. only ˜6 mg/ml of 3α-OH-5β-pregnan-20-one solubility in 24% w/v non-encapsulated SBE-β-CD solution). The solubilized fraction of 3α-OH-5β-pregnan-20-one began to decline, as observed by precipitation, when 3α-OH-5β-pregnan-20-one concentration was above 8 mg/ml. The amount of 3α-OH-5β-pregnan-20-one in the cyclodextrin solution can only be enabled by about 0.6% w/w loading amount of the composition fill. Moreover, high cyclodextrin amounts required to solubilize 3α-OH-5β-pregnan-20-one also present safety concerns. In some aspects, the compositions and dosage forms of this invention can comprise higher 3α-OH-5β-pregnan-20-one loading amounts than ones formulated in non-encapsulated SBE-β-CD or any cyclodextrin solution composition.

## CC(=O)[C@H]1CC[C@H]2[C@@H]3CC[C@@H]4C[C@H](O)CC[C@]4(C)[C@H]3CC[C@]12C [3α-OH-5β-pregnan-20-one]
Cyclodextrin (SBE-β-CD) solution
  3α-OH-5β-pregnan-20-one concentration above which the solubilized fraction began to decline, as observed by precipitation: above 8 mg/ml
Cyclodextrin solution
  loading amount of the composition fill enabled in the cyclodextrin solution: about 0.6 % w/w
In 24% w/v non-encapsulated SBE-β-CD solution
  3α-OH-5β-pregnan-20-one solubility: ~6 mg/mL
